Source: patent publication US20190134005A1 (BioMarin Pharmaceutical Inc., priority 2016, published 2019)

The compounds below were run against T1, human CGT (Homo sapiens, UniProt Q16880) (assay: Assay 1: CGT Enzymatic Assay (RapidFire/MS/MS, 0.01% Tween 80)). Conditions: Table 1, Compounds of Formula (I) and Formula (II); CGT enzymatic assay, C6-NBD-dihydro-galactosylceramide readout; read-out: IC50.
T1 sequence (Q16880 21-541): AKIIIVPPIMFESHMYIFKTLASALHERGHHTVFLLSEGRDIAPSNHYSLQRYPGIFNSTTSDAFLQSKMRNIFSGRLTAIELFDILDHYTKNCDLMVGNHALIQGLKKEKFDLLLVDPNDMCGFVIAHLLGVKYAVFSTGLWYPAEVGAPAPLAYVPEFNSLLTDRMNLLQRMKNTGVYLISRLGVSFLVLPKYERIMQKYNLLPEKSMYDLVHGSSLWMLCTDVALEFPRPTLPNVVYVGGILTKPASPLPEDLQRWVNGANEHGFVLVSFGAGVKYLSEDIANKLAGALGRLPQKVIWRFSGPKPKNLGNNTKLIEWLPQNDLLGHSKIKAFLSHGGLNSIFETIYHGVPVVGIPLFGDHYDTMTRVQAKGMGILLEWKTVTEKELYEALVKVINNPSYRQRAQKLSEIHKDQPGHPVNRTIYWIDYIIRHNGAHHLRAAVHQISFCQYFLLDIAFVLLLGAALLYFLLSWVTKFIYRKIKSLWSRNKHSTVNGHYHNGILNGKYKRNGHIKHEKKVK
Format: biochemical

Row | IC50 | Compound
1 | < 1 µM | Cc1ccc(N2C(=O)N(c3ccc(C)cc3)C(O)(c3cccc(OC(F)(F)F)c3)C23CCCC3)cc1 (stereo not drawn) [Example 327, 4-hydroxy-1,3-di-p-tolyl-4-(3-(trifluoromethoxy)phenyl)-1,3-diazaspiro[4.4]nonan-2-one]
2 | < 1 µM | O=C1N(c2ccccc2)C2(CCC2)C(O)(c2cccc(OC(F)(F)F)c2)N1c1ccc(Cl)cc1 (stereo not drawn) [Example 334, 7-(4-chlorophenyl)-8-hydroxy-5-phenyl-8-(3-(trifluoromethoxy)phenyl)-5,7-diazaspiro[3.4]octan-6-one]
3 | 1 to 10 µM | COC[C@]1(C)N(c2ccc(Cl)cc2)C(=O)N(c2ccc(Cl)cc2)[C@@]1(O)c1cccc(OC(F)(F)F)c1 [Compound 296-3, (4R,5S)-1,3-bis(4-chlorophenyl)-4-hydroxy-5-(methoxymethyl)-5-methyl-4-(3-(trifluoromethoxy)phenyl)imidazolidin-2-one]
4 | < 1 µM | COc1ccc(N2C(=O)N(c3ccc(OC)cc3)C(O)(c3cccc(OC(F)(F)F)c3)C2C(C)C)cc1 (racemic) [Example 329, (5S)-4-hydroxy-5-isopropyl-1,3-bis(4-methoxyphenyl)-4-(3-(trifluoromethoxy)phenyl)imidazolidin-2-one and (5R)-4-hydroxy-5-isopropyl-1,3-bis(4-methoxyphenyl)-4-(3-(trifluoromethoxy)phenyl)imidazolidin-2-one]

Row | Compound | IC50
5 | N#Cc1ccc(N2C(=O)N(c3ccc(Br)cc3)C(O)(c3cccc(C#N)c3)C23CCC3)cc1 (stereo not drawn) [Compound 295, 3-(7-(4-bromophenyl)-5-(4-cyanophenyl)-8-hydroxy-6-oxo-5,7-diazaspiro[3.4]octan-8-yl)benzonitrile] | < 1 µM

Same assay, conditions: Table 1, Compounds of Formula (I) and Formula (II); CGT enzymatic assay; read-out: IC50

Row | Compound | IC50
6 | C[C@@]1(c2ccccc2)N(c2ccc(Cl)cc2)C(=O)N(c2ccc(Cl)cc2)[C@@]1(O)c1ccccc1 [Compound 121-2, (4R,5S)-1,3-bis(4-chlorophenyl)-4-hydroxy-5-methyl-4,5-diphenylimidazolidin-2-one] | > 50 µM
7 | O=C1N(c2ccc(Br)cc2)CC(O)(c2ccc3ccccc3c2)N1c1ccc(Br)cc1 (stereo not drawn) [Example 24, 1,3-bis(4-bromophenyl)-4-hydroxy-4-(naphthalen-2-yl)imidazolidin-2-one] | > 50 µM
8 | CC1(O)CN(c2ccc(Br)cc2)C(=O)N1c1ccc(Br)cc1 (stereo not drawn) [Example 2, 1,3-bis(4-bromophenyl)-4-hydroxy-4-methylimidazolidin-2-one] | > 50 µM
9 | O=C1N(c2ccccc2)C(=O)C(O)(c2ccc(OC3CC3)cc2)N1c1ccccc1 (stereo not drawn) [Compound 156, 5-(4-cyclopropoxyphenyl)-5-hydroxy-1,3-diphenylimidazolidine-2,4-dione] | > 50 µM
10 | O=C1N(c2ccc(Br)cc2)C(=O)C(O)(c2ccc(OC3CC3)cc2)N1c1ccc(Br)cc1 (stereo not drawn) [Example 164, 1,3-bis(4-bromophenyl)-5-(4-cyclopropoxyphenyl)-5-hydroxyimidazolidine-2,4-dione] | > 50 µM
11 | COc1ccc(C2(O)C(=O)N(c3ccc(Br)cc3)C(=O)N2c2ccc(Br)cc2)cc1 (stereo not drawn) [Compound 144, 1,3-bis(4-bromophenyl)-5-hydroxy-5-(4-methoxyphenyl)imidazolidine-2,4-dione] | 50 to 100 µM
12 | CC(C)c1c(-c2cccc(OC(F)(F)F)c2)n(-c2ccc(Cl)cc2)c(=O)n1-c1ccc(Cl)cc1 [Example 50] | < 1 µM
13 | CC[C@H]1N(c2ccc(Cl)cc2)C(=O)N(c2ccc(Cl)cc2)C1(O)c1cccc(OC(F)F)c1 (stereo partly drawn) [Compound 118-2, (5R)-1,3-bis(4-chlorophenyl)-4-(3-(difluoromethoxy)phenyl)-5-ethyl-4-hydroxyimidazolidin-2-one] | < 1 µM
14 | CC(=O)c1cccc(C2(O)[C@H](C)N(c3ccc(Cl)cc3)C(=O)N2c2ccc(Cl)cc2)c1 (single isomer, unassigned) [Compound 136-1] | 1 to 10 µM
15 | CC1N(c2ccc(Br)cc2)C(=O)N(c2ccc(Br)cc2)C1(O)c1cccc(Cl)c1 (stereo not drawn) [Compound 73, 1,3-bis(4-bromophenyl)-4-(3-chlorophenyl)-4-hydroxy-5-methylimidazolidin-2-one] | < 1 µM
16 | O=C1N(c2ccc(Cl)cc2)C(=O)C(O)(c2ccccc2)N1c1ccc(Cl)cc1 (stereo not drawn) [Compound 147, 1,3-bis(4-chlorophenyl)-5-hydroxy-5-phenylimidazolidine-2,4-dione] | 10 to 50 µM
17 | OC1(c2ccccc2)CN(c2ccc(Br)cc2)C(=S)N1c1ccc(Br)cc1 (stereo not drawn) [Example 26, 1,3-bis(4-bromophenyl)-4-hydroxy-4-phenylimidazolidine-2-thione] | 50 to 100 µM
18 | C[C@@H]1N(c2ccc(Cl)cc2)C(=O)N(c2ccc(Cl)cc2)C1(O)c1cccc(C(F)(F)F)c1 (single isomer, unassigned) [Compound 77-1] | < 1 µM
19 | C[C@@H]1N(c2ccc(C#N)cc2)C(=O)N(c2ccc(C#N)cc2)C1(O)c1cccc(OC(F)(F)F)c1 (stereo partly drawn) [Example 180-1, 4,4′-((5S)-4-hydroxy-5-methyl-2-oxo-4-(3-(trifluoromethoxy)phenyl)imidazolidine-1,3-diyl)dibenzonitrile] | < 1 µM
20 | CCC1N(c2ccc(Cl)cc2)C(=O)N(c2ccc(Cl)cc2)C1(O)c1cccc(C#N)c1 (stereo not drawn) [Compound 106, 3-(1,3-bis(4-chlorophenyl)-5-ethyl-4-hydroxy-2-oxoimidazolidin-4-yl)benzonitrile] | < 1 µM
21 | Cc1ccccc1C1(O)CN(c2ccc(Br)cc2)C(=O)N1c1ccc(Br)cc1 (stereo not drawn) [Example 14, 1,3-bis(4-bromophenyl)-4-hydroxy-4-(o-tolyl)imidazolidin-2-one] | > 50 µM
22 | O=c1n(-c2ccc(Cl)cc2)c(-c2cccc(OC(F)(F)F)c2)c(C2CC2)n1-c1ccc(Cl)cc1 [Compound 65, 1,3-bis(4-chlorophenyl)-4-cyclopropyl-5-(3-(trifluoromethoxy)phenyl)-1,3-dihydro-2H-imidazol-2-one] | < 1 µM
23 | CCCC1N(c2ccc(Cl)cc2)C(=O)N(c2ccc(Cl)cc2)C1(O)CCC (stereo not drawn) [Compound 122, 1,3-bis(4-chlorophenyl)-4-hydroxy-4,5-dipropylimidazolidin-2-one] | 10 to 50 µM
24 | CC1N(c2ccc(C#N)cc2)C(=O)N(c2ccc(C#N)cc2)C1(O)c1cccc(OC(F)(F)F)c1 (stereo not drawn) [Example 180, 4,4′-(4-hydroxy-5-methyl-2-oxo-4-(3-(trifluoromethoxy)phenyl)imidazolidine-1,3-diyl)dibenzonitrile] | 1 to 10 µM

Second part, the compound after the results:

Row | IC50 | Compound
25 | < 1 µM | Cc1ccc(N2C(=O)N(c3ccc(C)cc3)C(O)(c3cccc(C#N)c3)C2C)cc1 (stereo not drawn) [Compound 105, 3-(4-hydroxy-5-methyl-2-oxo-1,3-di-p-tolylimidazolidin-4-yl)benzonitrile]
26 | < 1 µM | CC(=O)c1cccc(C2(O)[C@@H](C)N(c3ccc(Cl)cc3)C(=O)N2c2ccc(Cl)cc2)c1 (stereo partly drawn) [Compound 136-2, (5R)-4-(3-acetylphenyl)-1,3-bis(4-chlorophenyl)-4-hydroxy-5-methylimidazolidin-2-one]
27 | < 1 µM | N#Cc1cc(Cl)cc(C2(O)CN(c3ccc(Br)cc3)C(=O)N2c2ccc(Cl)cc2)c1 (stereo not drawn) [Compound 110, 3-(1-(4-bromophenyl)-3-(4-chlorophenyl)-4-hydroxy-2-oxoimidazolidin-4-yl)-5-chlorobenzonitrile]
28 | < 1 µM | N#Cc1cccc(C2(O)N(c3ccc(Cl)cc3)C(=O)N(c3ccc(Cl)cc3)[C@]23CCOC3)c1 (stereo partly drawn) [Example 221-1, 3-((5S)-1,3-bis(4-chlorophenyl)-4-hydroxy-2-oxo-7-oxa-1,3-diazaspiro[4.4]nonan-4-yl)benzonitrile]
29 | < 1 µM | CCC1N(c2ccc(Br)cc2)C(=O)N(c2ccc(Br)cc2)C1(O)c1cccc(C(F)(F)F)c1 (stereo not drawn) [Compound 67, 1,3-bis(4-bromophenyl)-5-ethyl-4-hydroxy-4-(3-(trifluoromethyl)phenyl)imidazolidin-2-one]
30 | < 1 µM | COC[C@@H]1N(c2ccc(Cl)cc2)C(=O)N(c2ccc(Cl)cc2)C1(O)c1cccc(OC(F)F)c1 (stereo partly drawn) [Compound 238-1, (5S)-1,3-bis(4-chlorophenyl)-4-(3-(difluoromethoxy)phenyl)-4-hydroxy-5-(methoxymethyl)imidazolidin-2-one]
31 | < 1 µM | O=C1N(c2ccc(Br)cc2)[C@H](C2CC2)C(O)(c2ccccc2)N1c1ccc(Br)cc1 (stereo partly drawn) [Compound 115-2, (5R)-1,3-bis(4-bromophenyl)-5-cyclopropyl-4-hydroxy-4-phenylimidazolidin-2-one]
32 | < 1 µM | CC[C@]1(C)N(c2ccc(Cl)cc2)C(=O)N(c2ccc(Cl)cc2)C1(O)c1cccc(OC(F)(F)F)c1 (single isomer, unassigned) [Example 163-2]
33 | < 1 µM | C[C@@H]1N(c2ccc(Cl)cc2)C(=O)N(c2ccc(Cl)cc2)C1(O)c1cccc(Br)c1 (stereo partly drawn) [Compound 94-1, (5S)-4-(3-bromophenyl)-1,3-bis(4-chlorophenyl)-4-hydroxy-5-methylimidazolidin-2-one]
34 | < 1 µM | CC1N(c2ccc(Cl)cc2)C(=O)N(c2ccc(Cl)cc2)C1(O)c1cccc(C#N)c1 (stereo not drawn) [Compound 99, 3-(1,3-bis(4-chlorophenyl)-4-hydroxy-5-methyl-2-oxoimidazolidin-4-yl)benzonitrile]
35 | < 1 µM | C[C@@H]1N(c2ccc(Cl)cc2)C(=O)N(c2ccc(Cl)cc2)C1(O)c1cccc(C#N)c1 (single isomer, unassigned) [Compound 99-1]
36 | < 1 µM | Cc1ccc(N2C(=O)N(c3ccc(C)cc3)C(O)(c3cccc(C#N)c3)[C@H]2C)cc1 (single isomer, unassigned) [Compound 105-2]
